Assay type in all cases: cell-based
The subject of experiment [1] is PC-3. The experiment can be described thus: MTS assay (cell growth inhibition), PC-3. To be noted: PC-3 cells, 72 hours incubation with test compound; concentration not given. As for the experimental part: (§1) Cells were maintained at 37° C., 5% CO2 in DMEM media supplemented with 1% fetal bovine serum, penicillin/streptomycin and fungizone (Invitrogen). Cells were seeded into 96-well tissue culture plates at 3000 per well and cultured at 37° C. for 18 hours. Test compounds were dissolved and diluted to 300× in DMSO then diluted 1:40 in DMEM. Cells were incubated with test compounds for 72 hours followed by incubation with tetrazolium compound (3-(4,5-dimethylthiazol-2-yl)-5-(3-carboxymethoxyphenyl)-2-(4-sulfophenyl)-2H-tetrazolium, inner salt; MTS) and the electron coupling reagent, phenazine methosulfate (PMS) for 4 hours. […] The ability of compounds to inhibit cell growth in this assay is correlated with the reduction of dehydrogenase enzyme activity found in metabolically active cells. The measurement of the absorbance of the formazan was assessed using an ENVISION™ (Perkin Elmer) microplate reader at 492 nm. The calculated IC50 value is the concentration of the test compound that causes a 50% decrease in the absorbance.

For experiment [2], the system named is MDA-MB. The experiment can be described thus: MTS assay (cell growth inhibition), MDA-MB. To be noted: MDA-MB cells, 72 hours incubation with test compound; concentration not given. As for the experimental part:
as §1

For experiment [3], the system named is PACA-2. Kind of experiment: MTS assay (cell growth inhibition), PACA-2. The note with it: PACA-2 cells, 72 hours incubation with test compound; concentration not given. As for the experimental part:
as §1
(In general: Tetrazolium dyes change colour on reduction, which living cells bring about.)

In experiment [4] the test system is Kato III. Kind of experiment: MTS assay (cell growth inhibition), Kato III. The note with it: Kato III cells, 72 hours incubation with test compound; concentration not given. As for the experimental part: as §1
Experiment [5] relates to NCI-H1299. Kind of experiment: MTS assay (cell growth inhibition), NCI-H1299. To be noted: NCI-H1299 cells, 72 hours incubation with test compound; concentration not given. As for the experimental part: as §1
For experiment [6], the system named is DLD-1. Kind of experiment: MTS assay (cell growth inhibition), DLD-1. To be noted: DLD-1 cells, 72 hours incubation with test compound; concentration not given. As for the experimental part: as §1

The structures appear in SMILES notation.

`COc1c(C)cnc(CN2C(=O)c3cnc4[nH]ncc4c3C2=O)c1C` [Example 72, 7-[(4-methoxy-3,5-dimethylpyridin-2-yl)methyl]pyrazolo[3,4-b]pyrrolo[3,4-d]pyridine-6,8(3H,7H)-dione]: the “MTS CELL KILL DATA (% INHIBITION) PC-3” value in experiment [1] is listed as “A (A = 80-100% INHIBITION)”. In addition, in experiment [2], the “MTS CELL KILL DATA (% INHIBITION) MDA-MB” value was “A (A = 80-100% INHIBITION)”. Also, the “MTS CELL KILL DATA (% INHIBITION) PACA-2” value in experiment [3] is “C (C = <50% INHIBITION)”. Besides, the “MTS CELL KILL DATA (% INHIBITION) Kato III” value in experiment [4] is “A (A = 80-100% INHIBITION)”. Besides, in experiment [5], the “MTS CELL KILL DATA (% INHIBITION) NCI-H1299” value is given as “C (C = <50% INHIBITION)”. Further, the “MTS CELL KILL DATA (% INHIBITION) DLD-1” value in experiment [6] was “C (C = <50% INHIBITION)”.
Take `O=C1c2cnc3[nH]ncc3c2C(=O)N1CC1CCC1` [Example 76, 7-(cyclobutylmethyl)pyrazolo[3,4-b]pyrrolo[3,4-d]pyridine-6,8(3H,7H)-dione]: the “MTS CELL KILL DATA (% INHIBITION) PC-3” value in experiment [1] is given as “C (C = <50% INHIBITION)”. The “MTS CELL KILL DATA (% INHIBITION) MDA-MB” value in experiment [2] was “C (C = <50% INHIBITION)”. Further, the “MTS CELL KILL DATA (% INHIBITION) PACA-2” value in experiment [3] is on record as “C (C = <50% INHIBITION)”. Further, in experiment [4], the “MTS CELL KILL DATA (% INHIBITION) Kato III” value is listed as “C (C = <50% INHIBITION)”. Besides, the “MTS CELL KILL DATA (% INHIBITION) NCI-H1299” value in experiment [5] was “C (C = <50% INHIBITION)”. In addition, in experiment [6], the “MTS CELL KILL DATA (% INHIBITION) DLD-1” value is “C (C = <50% INHIBITION)”.
Consider `O=C1c2cnc3[nH]ncc3c2C(=O)N1CCc1cccc2ccccc12` [Example 77, 7-[2-(1-naphthyl)ethyl]pyrazolo[3,4-b]pyrrolo[3,4-d]pyridine-6,8(3H,7H)-dione], for which, in experiment [1], the “MTS CELL KILL DATA (% INHIBITION) PC-3” value is given as “A (A = 80-100% INHIBITION)”. Besides, the “MTS CELL KILL DATA (% INHIBITION) MDA-MB” value in experiment [2] is given as “A (A = 80-100% INHIBITION)”. In addition, the “MTS CELL KILL DATA (% INHIBITION) PACA-2” value in experiment [3] was “A (A = 80-100% INHIBITION)”. In addition, the “MTS CELL KILL DATA (% INHIBITION) Kato III” value in experiment [4] is given as “A (A = 80-100% INHIBITION)”. The “MTS CELL KILL DATA (% INHIBITION) NCI-H1299” value in experiment [5] is reported as “A (A = 80-100% INHIBITION)”. Further, the “MTS CELL KILL DATA (% INHIBITION) DLD-1” value in experiment [6] is “A (A = 80-100% INHIBITION)”.
As for `C[C@@H](CN1C(=O)c2cnc3[nH]ncc3c2C1=O)c1ccccc1` [Example 82, 7-[(2R)-2-phenylpropyl]pyrazolo[3,4-b]pyrrolo[3,4-d]pyridine-6,8(3H,7H)-dione], the “MTS CELL KILL DATA (% INHIBITION) PC-3” value in experiment [1] is listed as “A (A = 80-100% INHIBITION)”. Also, in experiment [2], the “MTS CELL KILL DATA (% INHIBITION) MDA-MB” value is “A (A = 80-100% INHIBITION)”. Besides, in experiment [3], the “MTS CELL KILL DATA (% INHIBITION) PACA-2” value is reported as “C (C = <50% INHIBITION)”. Further, the “MTS CELL KILL DATA (% INHIBITION) Kato III” value in experiment [4] is on record as “C (C = <50% INHIBITION)”. In experiment [5], the “MTS CELL KILL DATA (% INHIBITION) NCI-H1299” value is listed as “C (C = <50% INHIBITION)”. In addition, the “MTS CELL KILL DATA (% INHIBITION) DLD-1” value in experiment [6] is “C (C = <50% INHIBITION)”.
`O=C1c2cnc3[nH]ncc3c2C(=O)N1CC1CCOC1` (stereo not drawn) [Example 85, 7-(tetrahydrofuran-3-ylmethyl)pyrazolo[3,4-b]pyrrolo[3,4-d]pyridine-6,8(3H,7H)-dione]: in experiment [1], the “MTS CELL KILL DATA (% INHIBITION) PC-3” value is recorded as “C (C = <50% INHIBITION)”. Further, the “MTS CELL KILL DATA (% INHIBITION) MDA-MB” value in experiment [2] is “C (C = <50% INHIBITION)”. In addition, the “MTS CELL KILL DATA (% INHIBITION) PACA-2” value in experiment [3] is recorded as “C (C = <50% INHIBITION)”. Also, in experiment [4], the “MTS CELL KILL DATA (% INHIBITION) Kato III” value is listed as “C (C = <50% INHIBITION)”. The “MTS CELL KILL DATA (% INHIBITION) NCI-H1299” value in experiment [5] is on record as “C (C = <50% INHIBITION)”. Moreover, the “MTS CELL KILL DATA (% INHIBITION) DLD-1” value in experiment [6] is given as “C (C = <50% INHIBITION)”.
`Cc1cccc(CCN2C(=O)c3cnc4[nH]ncc4c3C2=O)c1` [Example 86, 7-[2-(3-methylphenyl)ethyl]pyrazolo[3,4-b]pyrrolo[3,4-d]pyridine-6,8(3H,7H)-dione]: in experiment [1], the “MTS CELL KILL DATA (% INHIBITION) PC-3” value was “A (A = 80-100% INHIBITION)”. The “MTS CELL KILL DATA (% INHIBITION) MDA-MB” value in experiment [2] is reported as “A (A = 80-100% INHIBITION)”. The “MTS CELL KILL DATA (% INHIBITION) PACA-2” value in experiment [3] is listed as “C (C = <50% INHIBITION)”. Besides, in experiment [4], the “MTS CELL KILL DATA (% INHIBITION) Kato III” value was “A (A = 80-100% INHIBITION)”. The “MTS CELL KILL DATA (% INHIBITION) NCI-H1299” value in experiment [5] is reported as “C (C = <50% INHIBITION)”. The “MTS CELL KILL DATA (% INHIBITION) DLD-1” value in experiment [6] is “C (C = <50% INHIBITION)”.
As for `O=C1c2cnc3[nH]ncc3c2C(=O)N1CCCc1cccnc1` [Example 87, 7-(3-pyridin-3-ylpropyl)pyrazolo[3,4-b]pyrrolo[3,4-d]pyridine-6,8(3H,7H)-dione], the “MTS CELL KILL DATA (% INHIBITION) PC-3” value in experiment [1] is listed as “C (C = <50% INHIBITION)”. Moreover, in experiment [2], the “MTS CELL KILL DATA (% INHIBITION) MDA-MB” value is reported as “C (C = <50% INHIBITION)”. Besides, in experiment [3], the “MTS CELL KILL DATA (% INHIBITION) PACA-2” value was “C (C = <50% INHIBITION)”. Moreover, the “MTS CELL KILL DATA (% INHIBITION) Kato III” value in experiment [4] is given as “C (C = <50% INHIBITION)”. The “MTS CELL KILL DATA (% INHIBITION) NCI-H1299” value in experiment [5] was “C (C = <50% INHIBITION)”. Further, the “MTS CELL KILL DATA (% INHIBITION) DLD-1” value in experiment [6] was “C (C = <50% INHIBITION)”.

For the origin of these results see US8906928B2, “Substituted pyrazolo-pyrrolo-pyridine-dione compounds” (ArQule, Inc., priority 2009, dated 2014).
